Measured values: patent publication US20220267329A1, “Dihydro-Spiro[Indoline-3:1'-Isoquinolin]-2-Ones and Their Analogues and Derivatives and Methods of Treating Cancer and Other Diseases” (The University of Buea, priority 2019, published 2022)

Assays:
[1] = tested on: EMT6 breast cancer cell line; assay: Antiproliferative screening on EMT6 cancer cells; format: cell-based; settings: for activity at 100 µM: Mus musculus, EMT6, no ligand = 100, read-out: EMT6 cell proliferation (%); for EMT6 cell proliferation (%) / inhibition of EMT6 cell proliferation: 100 μM; for EMT6 cell proliferation (%): no ligand = 100
Method: Representative compounds were screened tested for antiproliferative activity on the EMT6 breast cancer cell line. Screening was carried out according to published procedures (Zeng et al., 2014). In this screen, compounds were tested at 100 μM concentration.

[2] = target: sphingosine-1-phosphate receptor 1 (S1PR1) (Homo sapiens, UniProt P21453); assay: Radioligand binding to sphingosine-1-phosphate receptor 1; settings: test compound 100 nM, 0.2 nM radioligand; for inhibition at 0.1 µM: read-out: % INHIBITION of binding to the SIP1 Receptor
Method: The binding of a representative group of compounds of this invention to sphingosine-1-phosphate receptor 1 (S1PR1) was determined by a published procedure (Rosenberg et al., 2016). In this assay, the test compound at 100 nM concentration was incubated with 0.2 nM radioligand. Active compounds or “hits” are defined as compounds that inhibit radioligand binding by 50% or more. […] This finding is significant because it establishes the 3′,4′-dihydro-2′H-[…]-2-one hybrid scaffold as an entirely new class of ligands for the sphingosine-1-phosphate receptors.

[3] = tested on: nonsmall cell lung cancer (NSCLC) cell lines; assay: NCI-60 screen, NSCLC cell lines; format: cell-based, human; settings: Homo sapiens, NCI-60 preliminary screening, read-out: Percent (%) Inhibition of Cancer Cell Line, NSCLC
Method: (§1) Screening for Anticancer Activity—The NCI-60 panel: Representative compounds of the invention were subjected to anticancer testing in the National Cancer Institute (NCI) 60 screen. In this screen compounds are tested on a panel of sixty human cancer cell lines chosen from the following cancers: leukemia, nonsmall cell lung cancer (NSCLC), colon, melanoma, central nervous system (CNS), ovarian, renal, prostate and breast. The assay method is found on the NCI website (dtp.cancer.gov/discovery_development/nci-60/methodology.htm). In the NCI-60 assay, test compounds undergo preliminary screening at 10 μM concentration. The data is reported as percent growth relative to “no drug” control; therefore values between 0 and 100% denote growth inhibition.

[4] = tested on: renal cancer cell lines; assay: NCI-60 screen, renal cell lines; format: cell-based, human; settings: Homo sapiens, NCI-60 preliminary screening, read-out: Percent (%) Inhibition of Cancer Cell Line, Renal Cell
Method: as §1

[5] = tested on: leukemia cell lines; assay: NCI-60 screen, leukemia cell lines; format: cell-based; settings: Homo sapiens, NCI-60 preliminary screening, read-out: Percent (%) Inhibition of Cancer Cell Line, Leukemia
Method: as §1

[6] = tested on: prostate cancer cell lines; assay: NCI-60 screen, prostate cell lines; format: cell-based, human; settings: Homo sapiens, Prostate cell, NCI-60 preliminary screening, read-out: Percent (%) Inhibition of Cancer Cell Line, Prostate
Method: as §1

[7] = tested on: breast cancer cell lines; assay: NCI-60 screen, breast cell lines; format: cell-based, human; settings: Homo sapiens, NCI-60 preliminary screening, read-out: Percent (%) Inhibition of Cancer Cell Line, Breast
Method: as §1

[8] = tested on: ovarian cancer cell lines; assay: NCI-60 screen, ovarian cell lines; format: cell-based, human; settings: Homo sapiens, NCI-60 preliminary screening, read-out: Percent (%) Inhibition of Cancer Cell Line, Ovarian
Method: as §1

Chain of sphingosine-1-phosphate receptor 1 (S1PR1) (P21453 whole entry, species assumed): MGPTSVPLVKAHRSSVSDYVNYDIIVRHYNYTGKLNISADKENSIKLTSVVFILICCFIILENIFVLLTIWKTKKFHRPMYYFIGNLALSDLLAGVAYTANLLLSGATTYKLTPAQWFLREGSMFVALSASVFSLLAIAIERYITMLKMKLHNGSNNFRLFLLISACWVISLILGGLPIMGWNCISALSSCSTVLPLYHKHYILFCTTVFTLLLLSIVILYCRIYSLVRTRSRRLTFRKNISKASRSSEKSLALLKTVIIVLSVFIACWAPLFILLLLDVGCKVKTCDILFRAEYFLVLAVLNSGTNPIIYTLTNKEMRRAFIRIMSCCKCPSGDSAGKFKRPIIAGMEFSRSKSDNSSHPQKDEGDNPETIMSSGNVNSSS

O=C1Nc2c(Br)cc(Br)cc2C12NCCc1cccc(O)c12 (centres unmarked) [Compound 1c, 5,7-Dibromo-8′-hydroxy-3′,4′-dihydro-2′H-spiro[indoline-3,1′-isoquinolin]-2-one]
activity at 100 µM [1]: 87.6%

O=C1N(Cc2ccc(Br)cc2)c2ccccc2C12NCCc1cccc(O)c12 (centres unmarked) [Compound 1f, 1-(4-bromobenzyl)-8′-hydroxy-3′,4′-dihydro-2′H-spiro[indoline-3,1′-isoquinolin]-2-one]
activity at 100 µM [1]: 103%
inhibition at 0.1 µM [2]: ≥ 50%

Cc1ccc(CN2C(=O)C3(NCCc4cccc(O)c43)c3ccccc32)cc1 (centres unmarked) [Compound 1h, 8′-Hydroxy-1-(4-methylbenzyl)-3′,4′-dihydro-2′H-spiro[indoline-3,1′-isoquinolin]-2-one]
activity at 100 µM [1]: 127%
inhibition at 0.1 µM [2]: ≥ 50%

O=C1N(Cc2ccccc2[N+](=O)[O-])c2ccccc2C12NCCc1cccc(O)c12 (centres unmarked) [Compound 1i, 8-Hydroxy-1-(2-nitrobenzyl)-3′,4′-dihydro-2′H-spiro[indoline-3,1′-isoquinolin]-2-one]
EMT6 cell proliferation (%) [1]: 108.20%
% INHIBITION of binding to the SIP1 Receptor [2]: 35.4%

O=C1N(Cc2ccc(F)cc2)c2ccc(Cl)cc2C12NCCc1cccc(O)c12 (centres unmarked) [Compound 1k, 5-Chloro-1-(4-fluorobenzyl)-8′-hydroxy-3′,4′-dihydro-2′H-spiro[indoline-3,1′-isoquinolin]-2-one]
inhibition at 0.1 µM [2]: ≥ 50%

O=C1N(Cc2ccc(Cl)cc2)c2ccc(Cl)cc2C12NCCc1cccc(O)c12 (centres unmarked) [Compound 1l, 5-Chloro-1-(4-chlorobenzyl)-8′-hydroxy-3′,4′-dihydro-2′H-spiro[indoline-3,1′-isoquinolin]-2-one]
inhibition at 0.1 µM [2]: ≥ 50%

O=C1Nc2ccc(Cl)cc2C12NCCc1cc(O)ccc12 (centres unmarked) [Compound 2b, 5-Chloro-6′-hydroxy-3′,4′-dihydro-2′H-spiro[indoline-3,1′-isoquinolin]-2-one]
inhibition at 10 µM [3]: 17%
inhibition at 10 µM [4]: 17%
activity at 100 µM [1]: 109%

O=C1N(Cc2ccc(F)cc2)c2ccccc2C12NCCc1cc(O)ccc12 (centres unmarked) [Compound 2d, 1-(4-Fluorobenzyl)-6′-hydroxy-3′,4′-dihydro-2′H-spiro[indolline-3,1′-isoquinolin]-2-one]
EMT6 cell proliferation (%) [1]: 123.61%

O=C1N(Cc2ccc(Cl)cc2)c2ccccc2C12NCCc1cc(O)ccc12 (centres unmarked) [Compound 2e, 1-(4-Chlorobenzyl)-6′-hydroxy-3′,4′-dihydro-2′H-spiro[indoline-3,1′-isoquinolin]-2-one]
activity at 100 µM [1]: 72.2%

O=C1N(Cc2ccc(Br)cc2)c2ccccc2C12NCCc1cc(O)ccc12 (centres unmarked) [Compound 2f, 1-(4-bromobenzyl)-6′-hydroxy-3′,4′-dihydro-2′H-spiro[indoline-3,1′-isoquinolin]-2-one]
inhibition of EMT6 cell proliferation [1]: as much as fifty percent
activity at 100 µM [1]: 41.4%

O=C1N(Cc2ccc(Cl)c(Cl)c2)c2ccccc2C12NCCc1cc(O)ccc12 (centres unmarked) [Compound 2g, 1-(3,4-Dichlorobenzyl)-6′-hydroxy-3′,4′-dihydro-2′H-spiro[indoline-3,1′-isoquinolin]-2-one]
inhibition at 10 µM [3]: 25%
inhibition at 10 µM [5]: 19%
inhibition at 10 µM [4]: 22 to 36%
inhibition at 10 µM [6]: 19%
inhibition at 10 µM [7]: 13%
inhibition of EMT6 cell proliferation [1]: as much as fifty percent
activity at 100 µM [1]: 56.5%

Cc1ccc(CN2C(=O)C3(NCCc4cc(O)ccc43)c3ccccc32)cc1 (centres unmarked) [Compound 2h, 6′-Hydroxy-1-(4-methylbenzyl)-3′,4′-dihydro-2′H-spiro[indoline-3,1′-isoquinolin]-2-one]
inhibition at 10 µM [3]: 32%
inhibition at 10 µM [5]: 24%
inhibition at 10 µM [4]: 25%
activity at 100 µM [1]: 132%

O=C1N(Cc2ccccc2[N+](=O)[O-])c2ccccc2C12NCCc1cc(O)ccc12 (centres unmarked) [Compound 2i, 6′-Hydroxy-1-(2-nitrobenzyl)-3′,4′-dihydro-2′H-spiro[indoline-3,1′-isoquinolin]-2-one]
activity at 100 µM [1]: 98.5%

O=C1N(Cc2ccc(F)cc2)c2ccc(Cl)cc2C12NCCc1cc(O)ccc12 (centres unmarked) [Compound 2k, 5-Chloro-1-(4-fluorobenzyl)-6′-hydroxy-3′,4′-dihydro-2′H-spiro[indoline-3,1′-isoquinolin]-2-one]
activity at 100 µM [1]: 131%

O=C1N(Cc2ccc(Cl)cc2)c2ccc(Cl)cc2C12NCCc1cc(O)ccc12 (centres unmarked) [Compound 2l, 5-Chloro-1-(4-chlorobenzyl)-6′-hydroxy-3′,4′-dihydro-2′H-spiro[indoline-3,1′-isoquinolin]-2-one]
inhibition of EMT6 cell proliferation [1]: as much as fifty percent
activity at 100 µM [1]: 37.2%
inhibition at 0.1 µM [2]: ≥ 50%

Cc1ccc(CN2C(=O)C3(NCCc4cc(O)ccc43)c3cc(Cl)ccc32)cc1 (centres unmarked) [Compound 2m, 5-Chloro-6′-hydroxy-1-(4-methylbenzyl)-3′,4′-dihydro-2′ spiro[indoline-3,1′-isoquinolin]-2-one]
EMT6 cell proliferation (%) [1]: 72.26%
% INHIBITION of binding to the SIP1 Receptor [2]: 52.4%

O=C1Nc2ccccc2C12NCCc1cc(O)c(O)cc12 (centres unmarked) [Compound 3a, 6′,7′-Dihydroxy-3′,4′-dihydro-2′H-spiro[indoline-3,1′-isoquinolin]-2-one]
activity at 100 µM [1]: 91.2%

O=C1Nc2ccc(Cl)cc2C12NCCc1cc(O)c(O)cc12 (centres unmarked) [Compound 3b, 5-Chloro-6′,7′-dibydroxy-3′,4′-dihydro-2′H-spiro[indoline-3,1′-isoquinolin]-2-one]
% INHIBITION of binding to the SIP1 Receptor [2]: 34.2%

COc1ccc2c(c1)CCNC21C(=O)Nc2ccc(Cl)cc21 (centres unmarked) [Compound 4b, 5-Chloro-6′-methoxy-3′,4′-dihydro-2′H-spiro[indoline-3,1′-isoquinolin]-2-one]
inhibition at 10 µM [4]: 23 to 30%
activity at 100 µM [1]: 142%

COc1ccc2c(c1)CCNC21C(=O)Nc2c(Br)cc(Br)cc21 (centres unmarked) [Compound 4c, 5,7-Dibromo-6′-methoxy-3′,4′-dihydro-2′H-spiro[indoline-3,1′-isoquinolin]-2-one]
inhibition at 0.1 µM [2]: 36.3%

COc1ccc2c(c1)CCNC21C(=O)N(Cc2ccc(F)cc2)c2ccccc21 (centres unmarked) [Compound 4d, 6′-Methoxy-1-(4-fluorobenzyl)-3′,4′-dihydro-2′H-spiro[indoline-3,1′-isoquinolin]-2-one]
inhibition at 0.1 µM [2]: 41.5%

COc1cc2c(cc1OC)C1(NCC2)C(=O)Nc2ccccc21 (centres unmarked) [Compound 5a, 6′,7′-Dimethoxy-3′,4′-dihydro-2′H-spiro[indoline-3,1′-isoquinolin]-2-one]
inhibition at 10 µM [4]: 25 to 37%
inhibition at 0.1 µM [2]: 39.1%

COc1cc2c(cc1OC)C1(NCC2)C(=O)N(Cc2ccc(F)cc2)c2ccccc21 (centres unmarked) [Compound 5d, 1-(4-fluorobenzyl)-6′,7′-dimethoxy-3′,4′-dihydro-2′H-spiro[indoline-3,1′-isoquinolin]-2-one]
inhibition at 0.1 µM [2]: 40%

COc1cc2c(c(OC)c1OC)C1(NCC2)C(=O)Nc2ccccc21 (centres unmarked) [Compound 6a, 6′,7′,8′-Trimethoxy-3′,4′-dihydro-2′H-spiro[indoline-3,1′-isoquinolin]-2-one]
inhibition at 10 µM [5]: 22%
inhibition at 10 µM [4]: 22%
inhibition at 0.1 µM [2]: 38.4%

COc1cc2c(c(OC)c1OC)C1(NCC2)C(=O)Nc2ccc(Cl)cc21 (centres unmarked) [Compound 6b, 5-Chloro-6′,7′,8′-trimethoxy-3′,4′-dihydro-2′H-spiro[indoline-3,1′-isoquinolin]-2-one]
inhibition at 10 µM [3]: 20%
inhibition at 10 µM [4]: 28 to 31%
inhibition at 10 µM [8]: 20%
inhibition at 0.1 µM [2]: 41.1%

COc1cc2c(c(OC)c1OC)C1(NCC2)C(=O)Nc2c(Br)cc(Br)cc21 (centres unmarked) [Compound 6c, 5,7-Dibromo-6′,7′,8′-trimethoxy-3′,4′-dihydro-2′H-spiro[indoline-3,1′-isoquinolin]-2-one]
inhibition at 0.1 µM [2]: 36.7%

COc1cc2c(c(OC)c1OC)C1(NCC2)C(=O)N(Cc2ccc(F)cc2)c2ccccc21 (centres unmarked) [Compound 6d, 1-(4-Fluorobenzyl)-6′,7′,8′-trimethoxy-3′,4′-dihydro-2′H-spiro[indoline-3,1′-isoquinolin]-2-one]
inhibition at 0.1 µM [2]: ≥ 50%

COc1cc2c(c(OC)c1OC)C1(NCC2)C(=O)N(Cc2ccc(C)cc2)c2ccccc21 (centres unmarked) [Compound 6e, 6′,7′,8′-Trimethoxy-1-(4-methylbenzyl)-3′,4′-dihydro-2′H-spiro[indoline-3,1′-isoquinolin]-2-one]
inhibition at 0.1 µM [2]: 31.3%
